Assay in all cases: Substrate saturation kinetic analysis of purified GLYAT
For assay [1], the target named is GLYAT (glyphosate-N-acetyltransferase), parent of saturation mutagenesis (already fit protein), SEQ ID NO:26 (derived from SEQ ID NO:1 and 2) (Bacillus licheniformis, UniProt Q65LG7, A28V/C29I/D131E/E14D/E65Q/E67K/E68K/E83D/G37R/I132T/I135A/I15L/I19V/I53V/I91V/K101R/K144R/K58Q/L105M/L26I/L97I/M75V/R47G/R92K/T89S/V114A/Y130F/Y45F). The format is biochemical. How it is done:
E. coli cultures in LB or 2×YT were grown overnight at 37° C. to saturation. The cells were used as a 2% inoculum into fresh media. When OD reached 0.6, IPTG was added to 0.2 mM and growth was continued for at least 6 hours. Cells were harvested by centrifugation and stored at −80° C. Cells were lysed with BPER (Pierce) containing 1 mM dithiothreitol, 0.2 mg/ml lysozyme, 2 mg/ml protease inhibitor cocktail (Sigma bacterial cell cocktail, P8465) and endonuclease. Lysate supernatants were passed through a column of NHS-activated Agarose (Thermo, #26197) derivatized with coenzyme A. Columns were washed with 25 mM Hepes, pH 7, containing progressively higher concentrations of KCl, then eluted with 25 mM Hepes, 100 mM KCl, 10% ethylene glycol and 1 mM acetyl CoA. Purity as evaluated by polyacrylamide gel electrophoresis was deemed consistently high enough to be assumed to be 100%. Protein concentration was determined with the Bradford assay using a large-scale lot of produced GLYAT protein as standard.
Kinetic parameters for various substrates were obtained using a range of seven substrate concentrations plus a blank containing none of the varied substrate. The non-varied substrate was present at a saturating concentration. Six-microliter aliquots of 50-fold concentrated stock solutions of the varied substrate were placed in a 96-well assay plate (Greiner BioOne UV-Star). Reactions were started with the addition of 294 ul of 25 mM Hepes, pH 7.0, 100 mM KCL, 10% ethylene glycol, the non-varied substrate and 10 to 200 nM enzyme. Absorbance was monitored for one minute with a Spectramax 384 Plus plate reader (Molecular Devices). If the amino acid present at position 30 (29 if alanine is absent at position 2) was cysteine, absorbance was monitored at 235 nm, which directly detects cleavage of the sulfoester bond of acetyl CoA. If the amino acid present at position 30 (29 if alanine is absent at position 2) was isoleucine, 0.5 mM 5,5′-dithiobis-(2-nitrobenzoic acid), which reacts with the coenzyme A thiol generated in the enzyme catalyzed reaction, was included in the reaction mix and absorbance was monitored at 412 nm. Initial rates were processed by the Softmax software to obtain kinetic parameters, using the double-reciprocal transformation.
The sequences with the new substitutions were derived through a combination of saturation mutagenesis of an already fit protein (SEQ ID NO:26) and an effective screening cascade as a means of identifying the improved genes (Examples 1-2). Regions in which novel changes are concentrated include helix H2a (positions 23 and 25-29) and the hairpin formed by strands B6 and B7 (positions 124-144). These two structures are components of the amino substrate binding site. Helix H3, the backbone to which the central beta sheet is anchored, is a region where 24% of the novel substitutions (17 out of 71) disclosed in Table 4 are concentrated into 11% of the positions (16 out of 146). None of those are near enough to the active site to influence substrate specificity directly. In three cases, multiple novel substitutions were discovered immediately or nearly adjacent to conserved amino acids shown previously to contribute to the catalytic mechanism (Siehl D L et. al., J Biol Chem, 282:11446, 2007). The catalytic amino acids for which this is the case are R21, R111, H138 and the nearby positions with multiple substitutions are 23, 112 and 137. The diverse amino acids at these positions may influence the orientation of the neighboring catalytic amino acids so as to selectively optimize catalysis with the preferred substrate, glyphosate.

For assay [2], the target named is GLYAT (glyphosate-N-acetyltransferase), parent, SEQ ID NO:2 (Bacillus licheniformis, UniProt Q65LG7, A28V/D131E/E119K/E63D/E65Q/E67Q/E68K/E83D/E96Q/G37R/I132T/I135V/I15L/I2L/K101R/K144R/K58Q/L105M/L97I/R18K/T89S/V114A/Y130F/Y45F). The conditions noted are these: pH 7.0.
Sequence of GLYAT (glyphosate-N-acetyltransferase), parent, SEQ ID NO:2 (Q65LG7 entry or part of it with the stated changes): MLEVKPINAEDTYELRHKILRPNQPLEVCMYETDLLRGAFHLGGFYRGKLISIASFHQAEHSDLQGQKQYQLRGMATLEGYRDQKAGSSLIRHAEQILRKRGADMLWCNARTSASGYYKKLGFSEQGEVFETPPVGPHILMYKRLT
Assay [3] concerns the target GLYAT variant SEQ ID NO:6 (derived from SEQ ID NO:1 and 2) (Bacillus licheniformis, UniProt Q65LG7, A28V/D131E/E119K/E14D/E65Q/E67K/E68K/G37R/I132T/I135A/I15L/I19V/I53V/I91V/K101R/K144R/K58Q/L105M/L106I/L26I/L36T/L97I/M75A/R47G/R92K/T89S/V114A/V4I/Y130F/Y45F/Y46C). The conditions noted are these: pH 7.0.
Assay [4] concerns the target GLYAT variant SEQ ID NO:8 (derived from SEQ ID NO:1 and 2) (Bacillus licheniformis, UniProt Q65LG7, A28V/D131E/E119K/E14D/E65Q/E67K/E68K/E83D/G37R/G38S/I132T/I135A/I15L/I53V/I91V/K101R/K144R/K58Q/L105M/L106I/L26I/L36T/L97I/M75V/N8S/R47G/R92K/T89S/V114A/Y130F/Y45F). The conditions noted are these: pH 7.0.
Assay [5] addresses GLYAT variant SEQ ID NO:9 (derived from SEQ ID NO:1 and 2) (Bacillus licheniformis, UniProt Q65LG7, A28V/D131E/E119K/E14D/E65Q/E67K/E68K/G37R/G38S/I132T/I135A/I15L/I19V/I53V/I91V/K101R/K144R/K58Q/L105M/L26I/L97I/M75V/R47G/R92K/T89S/V114A/Y130F/Y45F). The conditions noted are these: pH 7.0.
The target in assay [6] is GLYAT variant SEQ ID NO:10 (derived from SEQ ID NO:1 and 2) (Bacillus licheniformis, UniProt Q65LG7, A28V/D131E/E14D/E65Q/E67K/E68K/G37R/G38S/H61R/I132T/I135A/I15L/I19V/I53V/I91V/K101R/K144R/K58Q/L105M/L106I/L26I/L97I/M75V/R47G/R92K/T89S/V114A/Y130F/Y45F). The conditions noted are these: pH 7.0.
Setting [7] is: pH 7.0, non-varied substrate saturating.

Sequence of GLYAT (glyphosate-N-acetyltransferase), parent of saturation mutagenesis (already fit protein), SEQ ID NO:26 (derived from SEQ ID NO:1 and 2) (Q65LG7 entry or part of it with the stated changes): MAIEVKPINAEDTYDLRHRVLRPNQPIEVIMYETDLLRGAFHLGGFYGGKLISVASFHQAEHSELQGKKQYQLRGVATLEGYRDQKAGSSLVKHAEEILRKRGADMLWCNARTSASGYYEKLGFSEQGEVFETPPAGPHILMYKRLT

On to `N[C@@H](CC(=O)O)C(=O)O` [aspartate], for which the “Asp as % of glyph (kcat/KM asp / kcat/KM glyph)” value was 0.038% in assay [1] (pH 7.0); 0.574% in assay [2]; 0.052% in assay [3]; 0.079% in assay [4]; 0.073% in assay [5]; 0.091% in assay [6]. Further, the “kcat (aspartate)” value in assay [1] (setting [7]) amounted to 90 min⁻¹. Moreover, the “kcat/KM (aspartate)” value in assay [1] (setting [7]) amounted to 0.96 min⁻¹ mM⁻¹.

The record behind these values is US11236354B2, “Glyphosate-n-acetyltransferase (GLYAT) sequences and methods of use” (PIONEER HI-BRED INTERNATIONAL, INC., priority 2013, dated 2022).
